In one series the test system is SCC9 cells. The experiment in a line: MTT cell viability assay, SCC9 oral cancer cells. The series is classed as cell-based, human. The following applies: for IC50: MTT; for SCC9 S.I.: selective index = IC50 HGF / IC50 SCC9; for dose-dependent cytotoxicity: SCC9, MTT. As to the method:
(§1) Human SCC-4, SCC-9, and SCC-25 cells derived from a human oral tongue SCC (squamous cell carcinoma) were obtained from the ATCC (CRL-1624, CRL-1629, and CRL-1628, respectively) and maintained in 1:1 DMEM/F12 (Dulbecco’s modified Eagle medium and Ham’s F12 medium; Gibco (Thermo Fisher, Waltham, MA, USA)) supplemented with 10% (v/v) FBS (fetal bovine serum; Invitrogen, Thermo Fisher, Waltham, MA, USA) and 400 ng/mL hydrocortisone (Sigma-Aldrich Co., St. Louis, MO, USA). Primary normal human gingival fibroblasts were obtained from the ATCC (PCS-201-018; HGF) and maintained in DMEM supplemented with 10% (v/v) FBS and were used in a maximum of six passages. The cells were grown in a humidified environment containing 5% CO2 at 37 °C. For all biological experiments, the compounds and control nutlin 3a were solubilized in 100% DMSO (all Sigma-Aldrich) to a final concentration of 10 mM. Carboplatin stock was prepared in water (Fauldcarbo®; LibbsFarmacêutica, São Paulo, SP, Brazil) and was used as a standard anticancer compound.
(§2) The viability of SCC cell lines, HT-29, HCT-116, HEP2G and primary human fibroblast cells was evaluated using the MTT assay as in [26]. Briefly, the cells were grown in duplicates in 96-well plates (5 × 10^3 cells/well) until confluence. Then, the medium was removed, fresh medium was added, and the cells were returned to the incubator in the presence of different compounds. DMSO at the same concentrations was used as a 100% cell viability control. After 48 h, the cells were incubated with 5 mg/mL MTT reagent (3-(4,5-dimethyl-2-thiazolyl)-2,5-diphenyl-2-H-tetrazolium bromide) (Sigma-Aldrich Co., St. Louis, MO, USA) for 3.5 h. After that, formazan crystals were dissolved in MTT solvent solution (DMSO/methanol 1:1 v/v), and the absorbance at 560 nm was evaluated using an EPOCH microplate spectrophotometer (BioTek Instruments, Winooski, VT, USA) with the background absorbance at 670 nm subtracted. Each of the six compounds was tested at six or seven different concentrations, ranging from 0.3 µM to 200 µM in cancer cell lines (SCC-4, SCC-9 and SCC-25) and 0.3 µM to 200 µM in primary normal human gingival fibroblasts. Controls (carboplatin, nutlin 3a) were tested at six or seven different concentrations ranging from 0.05 µM to 1000 µM in cancer cells and normal cells, depending on the compound.
(§3) The data are presented as means ± SD. IC values for the MTT assays were obtained by nonlinear regression using the […] 5.0 program (Intuitive Software for Science, San Diego, CA, USA) from at least three independent experiments. A dose–response (inhibitor) vs. response curve using the least squares method was used to determine the IC50, SD, and R^2 of the data. The selectivity index was calculated as SI = IC50 of the compound in normal oral fibroblast cells/IC50 of the same compound for each cancer cell line (SCC-4, SCC-9, SCC-25, HCT-116, HT29 and HEP2G), and the mean was calculated when indicated.
Initially, the six chalcones (1a–f) were submitted to the MTT assay to evaluate their cytotoxicity. The assay was performed using the oral cancer cell line SCC9, and the results were analyzed by a non-linear regression curve to determine the value of the half maximal inhibitory concentration (IC50). As controls, known chemotherapeutic agents were used, namely carboplatin, routinely used in the treatment of oral cancer, and doxorubicin, widely used for other types of cancers.

Series [1] is described as follows: Solubility observed during in vitro testing. Type of series: physicochemical. The following applies: in vitro cytotoxicity testing.
Series [2] concerns Oral Tumor Cells (SCC9, SCC25, SCC4). The experiment in a line: MTT assay, average over oral tumor cells. The series is classed as cell-based, human. The following applies: for IC50: mean of SCC9, SCC25, SCC4; for Average S.I.: IC50 of normal primary fibroblasts / average IC50 of tumor cells. As to the method: as §2, §3
A further series relates to SCC4 cells. The experiment in a line: MTT cell viability assay, SCC4 cells. Type of series: cell-based, human. The following applies: for IC50: 48 h, MTT; for SCC4 S.I.: selective index = IC50 HGF / IC50 SCC4. As to the method: as §1, §2, §3
Another series deals with SCC25 cells. The experiment in a line: MTT cell viability assay, SCC25 cells. The series is classed as cell-based, human. Particulars: for IC50: 48 h, MTT; for SCC25 S.I.: selective index = IC50 HGF / IC50 SCC25. As to the method: as §1, §2, §3
For series [3], the system named is Primary Gingival Fibroblast (HGF). The experiment in a line: MTT cell viability assay, primary normal gingival fibroblasts. The series is classed as cell-based, human. The following applies: 48 h. As to the method:
as §1, §2, §3

The next series concerns HT29 (adenocarcinoma). The experiment in a line: MTT cell viability assay, HT29. Type of series: cell-based. As to the method:
as §2, §3

The mark [4] stands for this setting: Homo sapiens, SCC-9, 48 h, SCC9, 48 h, read-out: IC50.
Where [5] appears, read: Homo sapiens, SCC-9, 48 h, 48 h, read-out: SCC9 IC50.

Read-outs that look alike come from different tables or passages of the source.

Take `Nc1ccccc1C(=O)/C=C/c1cnn(-c2ccccc2)n1` [1a, (E)-1-(2-Aminophenyl)-3-(2-phenyl-2H-1,2,3-triazol-4-yl)prop-2-en-1-one]: the melting point fell in the range of 128 to 130 °C. Also, the IC50 with SCC9 cells (setting [4]) turned out to be 9.95 µM. For the same compound, the “solubility (in words)” value in series [1] is “formed highly insoluble well-structured crystals at low concentrations”.

In the case of `Nc1ccccc1C(=O)/C=C/c1cn(-c2ccccc2)nn1` [1b, (E)-1-(2-Aminophenyl)-3-(1-phenyl-1H-1,2,3-triazol-4-yl)prop-2-en-1-one], the melting point is 183 to 185 °C. Besides, in series [2] (Homo sapiens), the IC50 came to 12.6 µM. In addition, the “Average S.I.” value in series [2] was 2.82. Moreover, the IC50 in the series on SCC9 cells (setting [5]) came out at 12.7 µM. The IC50 in the series with SCC9 cells (setting [4]) stood at 12.7 µM. Besides, in the series on SCC9 cells, the “SCC9 S.I.” value was 2.80. For the same compound, the “solubility (in words)” value in series [1] was “highly soluble”. In the series on SCC4 cells (Homo sapiens, SCC-4), this compound came in with an IC50 of 12.6 µM. In addition, the “SCC4 S.I.” value with SCC4 cells was 2.83. Further, the IC50 in the series on SCC25 cells (Homo sapiens, SCC-25) amounted to 12.5 µM. For the same compound, in the series with SCC25 cells, the “SCC25 S.I.” value turned out to be 2.85. In series [3] (Homo sapiens, Fibroblast), this compound showed an IC50 of 35.7 µM.

In turn, `COc1ccc(-n2cc(/C=C/C(=O)c3ccccc3N)nn2)cc1` [1c, (E)-1-(2-Aminophenyl)-3-(1-(4-methoxyphenyl)-1H-1,2,3-triazol-4-yl)prop-2-en-1-one] gave a melting point of 174 to 176 °C. The IC50 in the series on SCC9 cells (setting [4]) is 9.32 µM. In series [1], the “solubility (in words)” value is “formed highly insoluble well-structured crystals at low concentrations”.

`Nc1ccccc1C(=O)/C=C/c1cn(-c2ccc([N+](=O)[O-])cc2)nn1` [1d, (E)-1-(2-Aminophenyl)-3-(1-(4-nitrophenyl)-1H-1,2,3-triazol-4-yl)prop-2-en-1-one]: the melting point was 253 to 255 °C. Besides, the dose-dependent cytotoxicity result in the series on SCC9 cells is “all presented dose-dependent cytotoxicity, except”.

Take `CCOC(=O)c1ccc(-n2cc(/C=C/C(=O)c3ccccc3N)nn2)cc1` [1e, Ethyl(E)-4-(4-(3-(2-aminophenyl)-3-oxoprop-1-en-1-yl)-1H-1,2,3-triazol-1-yl)benzoate]: the melting point is 220 to 222 °C. Further, the dose-dependent cytotoxicity entry with SCC9 cells was “all presented dose-dependent cytotoxicity, except”.

On to `N.N.O=C([O-])C1(C(=O)[O-])CCC1.[Pt+2]` [Carboplatin, carboplatin, reference compound], for which the “Average S.I.” value in series [2] was 2.03. For the same compound, the IC50 in series [2] was 165 µM; in the series on SCC9 cells (48 h, read-out: SCC9 IC50), 156 µM; in the series with SCC9 cells (SCC9, 48 h, read-out: IC50), 156 µM; in the series on SCC4 cells, 148 µM; in the series with SCC25 cells it was 191 µM; in series [3], 335 µM. Further, in the series on SCC9 cells, the “SCC9 S.I.” value is given as 2.15. Also, the “SCC4 S.I.” value in the series on SCC4 cells came out at 2.26. In addition, in the series with SCC25 cells, the “SCC25 S.I.” value is recorded as 1.75.

As for `COc1cccc2c1C(=O)c1c(O)c3c(c(O)c1C2=O)C[C@@](O)(C(=O)CO)C[C@@H]3O[C@H]1C[C@H](N)[C@H](O)[C@H](C)O1` [Doxorubicin, doxorubicin, reference compound], the IC50 in series [2] (Homo sapiens) is 1.49 µM; in the series with SCC9 cells (setting [5]), 2.99 µM; in the series with SCC9 cells (setting [4]) it was 2.99 µM; in the series with SCC4 cells (Homo sapiens, SCC-4), 0.57 µM; with SCC25 cells (Homo sapiens, SCC-25), 0.9 µM; in series [3] (Homo sapiens, Fibroblast), 3.47 µM. Further, the “Average S.I.” value in series [2] is reported as 2.34. Further, the “SCC9 S.I.” value with SCC9 cells came to 1.16. Also, in the series with SCC4 cells, the “SCC4 S.I.” value came to 6.09. In the series on SCC25 cells, the “SCC25 S.I.” value amounted to 3.86.

On to `COc1ccc(C2=N[C@@H](c3ccc(Cl)cc3)[C@@H](c3ccc(Cl)cc3)N2C(=O)N2CCNC(=O)C2)c(OC(C)C)c1` [nutlin-3a, reference compound], for which the IC50 in the series on HT29 (adenocarcinoma) (48 h, MTT) was 6.79 µM; in the series with SCC9 cells (48 h, read-out: SCC9 IC50), 18 µM; in series [3] it was 49.1 µM. Also, the “HT29 S.I.” value with HT29 (adenocarcinoma) (IC50 HGF / IC50 HT29) turned out to be 7.22. In addition, the “SCC9 S.I.” value in the series with SCC9 cells amounted to 2.72.
